Results: the supplement of paper PMC3937590

Tests used:
Assay in all cases: -log10 GI50 (growth inhibition 50%) (-log10(M)); higher = more potent growth inhibition
HCC1143 = tested on: HCC1143
Summary of the method: (§1)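 A value carrying a < qualifier equals the top dose tested. Each compound was tested in triplicate on breast cancer cell lines for 72 hours at nine doses in 1:5 serial dilution, using a luminescence read-out against a time-zero plate. Nonlinear least squares fitting of a Gompertz curve gave GI50, the molar concentration causing the set level of growth inhibition, which is reported as its negative logarithm. The logarithm is base 10.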

HCC1428 = tested on: HCC1428
Summary of the method: as §1

ZR751 = tested on: ZR751
Summary of the method: as §1

HBL100 = tested on: HBL100
Summary of the method: as §1

BT20 = tested on: BT20
Summary of the method: as §1

HCC1806 = tested on: HCC1806
Summary of the method: as §1

BT483 = tested on: BT483
Summary of the method: as §1

HCC202 = tested on: HCC202
Summary of the method: as §1

SUM225CWN = tested on: SUM225CWN
Summary of the method: as §1

HCC3153 = tested on: HCC3153
Summary of the method: as §1

SKBR3 = tested on: SKBR3
Summary of the method: as §1

| SMILES | -log10 GI50 (HCC1143) | -log10 GI50 (HCC1428) | -log10 GI50 (ZR751) | -log10 GI50 (HBL100) | -log10 GI50 (BT20) | -log10 GI50 (HCC1806) | -log10 GI50 (BT483) | -log10 GI50 (HCC202) | -log10 GI50 (SUM225CWN) | -log10 GI50 (HCC3153) | -log10 GI50 (SKBR3) |
| --- | --- | --- | --- | --- | --- | --- | --- | --- | --- | --- | --- |
| Cc1ccc(NC(=O)c2ccc(CN3CCN(C)CC3)cc2)cc1Nc1nccc(-c2cccnc2)n1 [Imatinib] | 4.53 | 4.8 | 4.56 | 4.62 | 4.89 | 5.15 | 3.82 | 5.81 | 4.9 | 4.52 | 4.63 |
| Cc1ccc(C(=O)N(CCCN)[C@@H](c2nc3cc(Cl)ccc3c(=O)n2Cc2ccccc2)C(C)C)cc1 [Ispinesib] | 7.29 | 5.37 | 7.05 | 7.52 | 7.77 | 7.55 | 6.08 | 8.12 | 6.99 | 7.56 | 7.49 |
| C/C(=C\c1csc(C)n1)[C@@H]1C[C@@H]2O[C@]2(C)CCC[C@H](C)[C@H](O)[C@@H](C)C(=O)C(C)(C)[C@@H](O)CC(=O)N1 [Ixabepilone] | 8.01 | 7.23 | 6.68 | – | 8.45 | 8.36 | 5.27 | 6.37 | 5.96 | 8.21 | 7.99 |
| Cc1[nH]c2ccccc2c1CCNCc1ccc(/C=C/C(=O)NO)cc1 [LBH589] | 7.09 | 6.98 | 6.8 | – | 6.41 | 6.82 | 7.14 | – | 6.96 | 6.53 | 7.25 |
| CS(=O)(=O)CCNCc1ccc(-c2ccc3ncnc(Nc4ccc(OCc5cccc(F)c5)c(Cl)c4)c3c2)o1 [Lapatinib] | < 4.78 | < 4.78 | < 4.78 | – | < 4.78 | < 4.78 | < 4.78 | 6.12 | 6.16 | < 4.78 | 6.39 |
| C[C@]12O[C@H](C[C@]1(O)CO)n1c3ccccc3c3c4c(c5c6ccccc6n2c5c31)CNC4=O [Lestaurtinib] | 6.48 | 6.3 | 5.75 | – | 5.53 | 6.79 | 6.21 | – | 6.03 | 5.06 | 6 |
| CC(C)C[C@@H](C=O)NC(=O)[C@H](CC(C)C)NC(=O)[C@H](CC(C)C)NC(=O)OCc1ccccc1 [MG-132] | 6.8 | 6.46 | 6.26 | – | 6.37 | 6.5 | 6.81 | – | 7.01 | 6.84 | 6.58 |
| NS(=O)(=O)OC[C@@H]1C[C@@H](n2ccc3c(N[C@H]4CCc5ccccc54)ncnc32)C[C@@H]1O [MLN4924] | 6.58 | 6.94 | 5.32 | – | 5.7 | 7.67 | 5.53 | – | 5.28 | 6.44 | 6.82 |
| CN(Cc1cnc2nc(N)nc(N)c2n1)c1ccc(C(=O)N[C@@H](CCC(=O)O)C(=O)O)cc1 [Methotrexate] | 7.62 | < 3.48 | 7.31 | < 3.48 | < 3.48 | 5.76 | 3.63 | 7.69 | < 3.48 | < 3.48 | 6.28 |
| NS(=O)(=O)c1ccc(Nc2nc(OCC3CCCCC3)c3[nH]cnc3n2)cc1 [NU6102] | 4.87 | 4.87 | 4.82 | – | – | 4.81 | – | – | 4.3 | 4.8 | 4.51 |
| COc1ccc(C2=N[C@@H](c3ccc(Cl)cc3)[C@@H](c3ccc(Cl)cc3)N2C(=O)N2CCNC(=O)C2)c(OC(C)C)c1 [Nutlin 3a] | 4.67 | 4.5 | 5.51 | 4.32 | 4.41 | 4.32 | 5.19 | 5.02 | 4.69 | 4.56 | 4.33 |
| O=C(/C=C/C#Cc1cccc(NS(=O)(=O)c2ccccc2)c1)NO [Oxamflatin] | 6.28 | 6.33 | 5.65 | – | 5.42 | 6.16 | 6.27 | – | 6.06 | 5.82 | 5.95 |
| Nc1nc2[nH]cc(CCc3ccc(C(=O)N[C@@H](CCC(=O)O)C(=O)O)cc3)c2c(=O)[nH]1 [Pemetrexed] | < 2.53 | < 2.53 | 5.05 | – | < 2.53 | 6.05 | < 2.53 | 5.11 | < 2.53 | < 2.53 | 5.02 |
| CC(C)[C@H](CO)Nc1nc(Nc2cccc(Cl)c2)c2ncn(C(C)C)c2n1 [Purvalanol A] | < 3.78 | 4.18 | < 3.78 | 4.6 | 4.57 | 4.14 | 4.4 | 4.02 | 4.36 | 3.83 | 4.19 |
| O=S(=O)(CC1CS1)c1ccc(Oc2ccccc2)cc1 (stereo not given) [SB-3CT] | < 4 | 4.24 | < 3.78 | – | 4.21 | < 4 | 4.59 | – | < 4 | < 4 | < 4 |
| CNC(=O)c1cc(Oc2ccc(NC(=O)Nc3ccc(Cl)c(C(F)(F)F)c3)cc2)ccn1 [Sorafenib] | 4.23 | 4.34 | 4.43 | 4.33 | 4.2 | 4.23 | 4.92 | 4.14 | 4.6 | 4.31 | 4.35 |
| CCN(CC)CCNC(=O)c1c(C)[nH]c(/C=C2\C(=O)Nc3ccc(F)cc32)c1C [Sunitinib malate] | 5.16 | 5.29 | 4.88 | 5.34 | 4.79 | 5.3 | 4.73 | 5.03 | 5.21 | 4.96 | 5.17 |
| Cc1cc(Nc2cc(N3CCN(C)CC3)nc(Sc3ccc(NC(=O)C4CC4)cc3)n2)n[nH]1 [VX-680] | 6 | 5.11 | 5.29 | – | 5.34 | 4.76 | 5.44 | – | 4.76 | 4.72 | < 4.48 |
| O=C(CCCCCCC(=O)Nc1ccccc1)NO [Vorinostat] | 3.9 | 4.42 | 3.77 | – | 3.74 | 3.89 | 4.23 | 5.03 | 3.84 | 3.77 | 4.32 |
| Cc1cc(C(=O)N2CCN(c3cccc(Cl)c3)CC2)n(-c2ccccc2)n1 [XRP44X] | 5.69 | 5.85 | 5.91 | – | 5.29 | 5.97 | 5.23 | – | 5.5 | 5.74 | – |
